# Test system: moderate-to-severe chronic spontaneous urticaria (CSU)
# Assay: Phase 2 CSU study: urticaria activity score over 7 days (UAS7)
# Assay type: in vivo, human
# Design: key to UAS7 Median / UAS7 Change from baseline Median / UAS7 change from baseline, Q1 / UAS7 change from baseline, Q3 / UAS7 change from baseline, Max / UAS7 Change from baseline LS Mean (SE): UAS7 points; daily UAS score ranges 0–6 points/day, over 7 days
# Excerpt: The study comprises a 12 week, randomized, double-blind, placebo-controlled, multi-center, dose-ranging efficacy and safety phase, followed by a 40 week open label extension (OLE) phase (see FIG. 1). The study consists of three phases and an optional OLE phase. […] Clinically, CSU is characterized by the spontaneous and recurrent appearance of pruritic hives. The proposed primary endpoints were the UAS7 at Week 12 in EU and EU reference countries and the ISS7 in the US. Regardless of where a participant was from, all assessments were the same. The UAS7 score is a composite score containing both the HSS7 and the ISS7. This allowed a global assessment of the two key components of urticaria: hives and itch. […] The UAS is a validated PRO measure. […] The daily UAS scores range from 0 to 6 point/day. […] Patients were to complete the UAS using the e-diary. […] The following secondary endpoints were to be analyzed using the same approach as for the primary endpoint: • Change from baseline in UAS7 at Week 4 • Change from baseline in UAS7 at Week 12 (for US and US reference countries) • Change from baseline in ISS7 at Week 12 (except US and US reference countries) • Change from baseline in HSS7 at Week 12 The following responder secondary endpoints were to be analyzed using the Cochran-Mantel-Haenszel test adjusted by region: • Proportion of participants with UAS7<6 at Week 12 • Proportion of participants with UAS7=0 at Week 12 Participants who received selected prohibited medications and/or rescue medications were to be considered as non-responders for time points after the medication usage. For other participants, all available data including those collected during the off-treatment period were to be used to determine the responder/non-responder status. Missing data were to be considered as non-responders.
# [1] = Week 6, 400 mg BID, ITT population
# [2] = Week 6, 400 mg BID, Omalizumab-Naïve
# [3] = Week 6, 400 mg BID, Prior Omalizumab Use
# [4] = Week 6, 400 mg BID, omalizumab-naive participants
# [5] = Week 6, 400 mg QPM, ITT population
# [6] = Week 6, 400 mg QPM, Omalizumab-Naïve
# [7] = Week 6, 400 mg QPM, Prior Omalizumab Use
# [8] = Week 6, 400 mg QPM, omalizumab-naive participants
# [9] = Week 6, 400 mg TID, ITT population
# [10] = Week 6, 400 mg TID, Omalizumab-Naïve
# [11] = Week 6, 400 mg TID, Prior Omalizumab Use
# [12] = Week 6, 400 mg TID, omalizumab-naive participants
# [13] = Week 7, 400 mg BID, ITT population
# [14] = Week 7, 400 mg BID, Omalizumab-Naïve
smiles,measurement,setting,value
"CC(C)(C=C(C#N)C(=O)N1CCC[C@@H](n2nc(-c3ccc(Oc4ccccc4)cc3F)c3c(N)ncnc32)C1)N1CCN(C2COC2)CC1 [rilzabrutinib, (R)-2-[3-[4-amino-3-(2-fluoro-4-phenoxy-phenyl)pyrazolo[3,4-d]pyrimidin-1-yl]piperidine-1-carbonyl]-4-methyl-4-[4-(oxetan-3-yl)piperazin-1-yl]pent-2-enenitrile]","OR for rilzabrutinib vs. placebo, UAS7 reduction of 10 points or more",[1],1.222
same,"RRD (%) for rilzabrutinib vs. placebo, UAS7 reduction of 10 points or more",[1],4.9 %
same,"Responder, UAS7 reduction from baseline of 10 points or more",[1],21 (51.2) n (%)
same,UAS7 Change from baseline Mean (SD),[2],−12.76 (11.42)
same,UAS7 Mean (SD),[2],17.02 (12.76)
same,UAS7 Median,[2],16.50
same,UAS7 Percent change from baseline Mean (SD),[2],−43.89 (39.18) %
same,UAS7 Percent change from baseline Median,[2],−38.06%
same,UAS7 Change from baseline Mean (SD),[3],−18.97 (18.81)
same,UAS7 Change from baseline Median,[3],−26.00
same,UAS7 Mean (SD),[3],13.03 (15.45)
same,UAS7 Median,[3],5.83
same,UAS7 Percent change from baseline Mean (SD),[3],−54.26 (54.98) %
same,UAS7 Percent change from baseline Median,[3],−86.11%
same,"Non-responder, UAS7 reduction from baseline of 10 points or more",[4],17 (48.6) n (%)
same,"OR for rilzabrutinib vs. placebo, UAS7 reduction of 10 points or more",[4],1.486
same,"RRD (%) for rilzabrutinib vs. placebo, UAS7 reduction of 10 points or more",[4],9.8 %
same,"Responder, UAS7 reduction from baseline of 10 points or more",[4],18 (51.4) n (%)
same,"Non-responder, UAS7 reduction from baseline of 10 points or more",[5],22 (57.9) n (%)
same,"OR for rilzabrutinib vs. placebo, UAS7 reduction of 10 points or more",[5],0.959
same,"RRD (%) for rilzabrutinib vs. placebo, UAS7 reduction of 10 points or more",[5],−1.0 %
same,"Responder, UAS7 reduction from baseline of 10 points or more",[5],16 (42.1) n (%)
same,UAS7 Change from baseline Mean (SD),[6],−11.79 (10.56)
same,UAS7 Change from baseline Median,[6],−9.00
same,UAS7 Mean (SD),[6],20.21 (10.42)
same,UAS7 Median,[6],18.25
same,UAS7 Percent change from baseline Mean (SD),[6],−35.97 (30.17) %
same,UAS7 Percent change from baseline Median,[6],−37.30%
same,UAS7 Change from baseline Mean (SD),[7],−24.00 (NC)
same,UAS7 Change from baseline Median,[7],−24.00
same,UAS7 Mean (SD),[7],17.00 (NC)
same,UAS7 Median,[7],17.00
same,UAS7 Percent change from baseline Mean (SD),[7],−58.54 (NC) %
same,UAS7 Percent change from baseline Median,[7],−58.54%
same,"Non-responder, UAS7 reduction from baseline of 10 points or more",[8],22 (59.5) n (%)
same,"OR for rilzabrutinib vs. placebo, UAS7 reduction of 10 points or more",[8],0.981
same,"RRD (%) for rilzabrutinib vs. placebo, UAS7 reduction of 10 points or more",[8],−0.5 %
same,"Responder, UAS7 reduction from baseline of 10 points or more",[8],15 (40.5) n (%)
same,"Non-responder, UAS7 reduction from baseline of 10 points or more",[9],16 (39.0) n (%)
same,"OR for rilzabrutinib vs. placebo, UAS7 reduction of 10 points or more",[9],1.787
same,"RRD (%) for rilzabrutinib vs. placebo, UAS7 reduction of 10 points or more",[9],14.2 %
same,"Responder, UAS7 reduction from baseline of 10 points or more",[9],25 (61.0) n (%)
same,UAS7 Change from baseline Mean (SD),[10],−15.94 (12.03)
same,UAS7 Change from baseline Median,[10],−15.00
same,UAS7 Mean (SD),[10],14.10 (11.23)
same,UAS7 Median,[10],14.00
same,UAS7 Percent change from baseline Mean (SD),[10],−52.07 (35.76) %
same,UAS7 Percent change from baseline Median,[10],−47.83%
same,UAS7 Change from baseline Mean (SD),[11],−26.03 (14.05)
same,UAS7 Change from baseline Median,[11],−26.58
same,UAS7 Median,[11],3.00
same,UAS7 Percent change from baseline Mean (SD),[11],−78.40 (28.08) %
same,UAS7 Percent change from baseline Median,[11],−89.66%
same,"Non-responder, UAS7 reduction from baseline of 10 points or more",[12],15 (42.9) n (%)
same,"OR for rilzabrutinib vs. placebo, UAS7 reduction of 10 points or more",[12],1.770
same,"RRD (%) for rilzabrutinib vs. placebo, UAS7 reduction of 10 points or more",[12],14.6 %
same,"Responder, UAS7 reduction from baseline of 10 points or more",[12],20 (57.1) n (%)
same,"Non-responder, UAS7 reduction from baseline of 10 points or more",[13],18 (43.9) n (%)
same,"OR for rilzabrutinib vs. placebo, UAS7 reduction of 10 points or more",[13],1.899
same,"RRD (%) for rilzabrutinib vs. placebo, UAS7 reduction of 10 points or more",[13],15.6 %
same,"Responder, UAS7 reduction from baseline of 10 points or more",[13],23 (56.1) n (%)
same,UAS7 Change from baseline Mean (SD),[14],−14.03 (11.20)
same,UAS7 Change from baseline Median,[14],−12.75
same,UAS7 Mean (SD),[14],15.55 (11.97)
same,UAS7 Median,[14],14.88
same,UAS7 Percent change from baseline Mean (SD),[14],−48.14 (36.14) %
